Measurements as given in ChEMBL document CHEMBL1201862, “PubChem BioAssay data set” (2004).
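1) Cells in 96-well plates. 2) Compound, 48 h, 5 concentrations. 3) Linear interpolation between surrounding doses. 4) Unreached endpoint = highest concentration. Here, GI50 denotes the concentration required for 50% inhibition of growth.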 Activity calls are given as the source filed them. Rule as the data show it: active = GI50 up to about 1.1 µM and inactive = higher.

Columns and labels:
Test in all cases: DTP human tumour cell line panel, 48 h
KM12 = tested on: KM12
KM-20L2 = tested on: KM-20L2
SK-OV-3 = tested on: SK-OV-3
RPMI-8226 = tested on: RPMI-8226
LXFL 529 = tested on: LXFL 529
SN12C = tested on: SN12C
XF498 = tested on: XF498
A549 = tested on: A549
M19-MEL = tested on: M19-MEL
COLO 205 = tested on: COLO 205
UACC-62 = tested on: UACC-62
HCC 2998 = tested on: HCC 2998
HCT-116 = tested on: HCT-116
SK-MEL-28 = tested on: SK-MEL-28
U-251 = tested on: U-251
NCI-H226 = tested on: NCI-H226
CAKI-1 = tested on: CAKI-1
UO-31 = tested on: UO-31
HT-29 = tested on: HT-29
LOX IMVI = tested on: LOX IMVI
UACC-257 = tested on: UACC-257
IGROV-1 = tested on: IGROV-1
SF-539 = tested on: SF-539
SK-MEL-2 = tested on: SK-MEL-2
SW-620 = tested on: SW-620
ACHN = tested on: ACHN
SF-268 = tested on: SF-268
OVCAR-8 = tested on: OVCAR-8
A498 = tested on: A498
786-0 = tested on: 786-0
HCT-15 = tested on: HCT-15
OVCAR-4 = tested on: OVCAR-4
DLD-1 = tested on: DLD-1
DMS-114 = tested on: DMS-114
RXF 393 = tested on: RXF 393
SNB-78 = tested on: SNB-78
SNB-75 = tested on: SNB-75
HOP-92 = tested on: HOP-92
TK-10 = tested on: TK-10
OVCAR-5 = tested on: OVCAR-5
M14 = tested on: M14
HOP-62 = tested on: HOP-62
DMS-273 = tested on: DMS-273
HOP-18 = tested on: HOP-18
OVCAR-3 = tested on: OVCAR-3
NCI-H23 = tested on: NCI-H23
EKVX = tested on: EKVX
SF-295 = tested on: SF-295
SNB-19 = tested on: SNB-19
Malme-3M = tested on: Malme-3M
NCI-H460 = tested on: NCI-H460
K562 = tested on: K562
NCI-H522 = tested on: NCI-H522
CCRF-CEM = tested on: CCRF-CEM
MOLT-4 = tested on: MOLT-4
HL-60 = tested on: HL-60
SR = tested on: SR
SK-MEL-5 = tested on: SK-MEL-5

CCOc1ccccc1N1C(=O)C(=O)C(c2nc3ccccc3s2)C(=O)C1=O
GI50 (KM12): 98.2 µM (inactive)
GI50 (KM-20L2): > 100 µM (inactive)
GI50 (SK-OV-3): 30.9 µM (inactive)
GI50 (RPMI-8226): > 100 µM (inactive)
GI50 (LXFL 529): 35.5 µM (inactive)
GI50 (SN12C): 79.4 µM (inactive)
GI50 (XF498): > 100 µM (inactive)
GI50 (A549): 20 µM (inactive)
GI50 (M19-MEL): 69.5 µM (inactive)
GI50 (COLO 205): > 100 µM (inactive)
GI50 (UACC-62): > 100 µM (inactive)
GI50 (HCC 2998): > 100 µM (inactive)
GI50 (HCT-116): 35.8 µM (inactive)
GI50 (SK-MEL-28): > 100 µM (inactive)
GI50 (U-251): 49.3 µM (inactive)
GI50 (NCI-H226): 69.5 µM (inactive)
GI50 (CAKI-1): 38.5 µM (inactive)
GI50 (UO-31): 34.7 µM (inactive)
GI50 (HT-29): 39.8 µM (inactive)
GI50 (LOX IMVI): 55.5 µM (inactive)
GI50 (UACC-257): > 100 µM (inactive)
GI50 (IGROV-1): 19.3 µM (inactive)
GI50 (SF-539): > 100 µM (inactive)
GI50 (SK-MEL-2): > 100 µM (inactive)
GI50 (SW-620): 58.9 µM (inactive)
GI50 (ACHN): 5.86 µM (inactive)
GI50 (SF-268): 82.6 µM (inactive)
GI50 (OVCAR-8): 41.5 µM (inactive)
GI50 (A498): 16.6 µM (inactive)
GI50 (786-0): 5.36 µM (inactive)
GI50 (HCT-15): 76.9 µM
GI50 (OVCAR-4): 3.48 µM (inactive)
GI50 (DLD-1): > 100 µM (inactive)
GI50 (DMS-114): > 100 µM (inactive)
GI50 (RXF 393): > 100 µM (inactive)
GI50 (SNB-78): > 100 µM (inactive)
GI50 (SNB-75): 23.8 µM (inactive)
GI50 (HOP-92): 36.2 µM (inactive)
GI50 (TK-10): 24.5 µM (inactive)
GI50 (OVCAR-5): > 100 µM (inactive)
GI50 (M14): > 100 µM (inactive)
GI50 (HOP-62): 46.8 µM (inactive)
GI50 (DMS-273): > 100 µM (inactive)
GI50 (HOP-18): 8.22 µM (inactive)
GI50 (OVCAR-3): 17.4 µM (inactive)
GI50 (NCI-H23): > 100 µM (inactive)
GI50 (EKVX): > 100 µM (inactive)
GI50 (SF-295): 41.7 µM (inactive)
GI50 (SNB-19): 56.5 µM (inactive)
GI50 (Malme-3M): 33.8 µM (inactive)
GI50 (NCI-H460): 26.4 µM (inactive)

CC1(C)O[C@@H](C[C@]2(C#N)C[C@H](CCl)OC(C)(C)O2)C[C@@H](C#N)O1
GI50 (KM12): > 100 µM (inactive)
GI50 (K562): > 100 µM (inactive)
GI50 (KM-20L2): > 100 µM (inactive)
GI50 (SK-OV-3): > 100 µM (inactive)
GI50 (RPMI-8226): > 100 µM (inactive)
GI50 (SN12C): > 100 µM (inactive)
GI50 (XF498): 55.8 µM (inactive)
GI50 (NCI-H522): > 100 µM (inactive)
GI50 (A549): > 100 µM (inactive)
GI50 (M19-MEL): > 100 µM (inactive)
GI50 (COLO 205): > 100 µM (inactive)
GI50 (UACC-62): > 100 µM (inactive)
GI50 (HCC 2998): > 100 µM (inactive)
GI50 (HCT-116): > 100 µM (inactive)
GI50 (CCRF-CEM): > 100 µM (inactive)
GI50 (SK-MEL-28): > 100 µM (inactive)
GI50 (U-251): > 100 µM (inactive)
GI50 (NCI-H226): > 100 µM (inactive)
GI50 (CAKI-1): > 100 µM (inactive)
GI50 (MOLT-4): > 100 µM (inactive)
GI50 (UO-31): > 100 µM (inactive)
GI50 (HT-29): > 100 µM (inactive)
GI50 (LOX IMVI): > 100 µM (inactive)
GI50 (UACC-257): > 100 µM (inactive)
GI50 (IGROV-1): > 100 µM (inactive)
GI50 (SF-539): > 100 µM (inactive)
GI50 (SK-MEL-2): > 100 µM (inactive)
GI50 (SW-620): > 100 µM (inactive)
GI50 (HL-60): > 100 µM (inactive)
GI50 (ACHN): > 100 µM (inactive)
GI50 (SF-268): > 100 µM (inactive)
GI50 (OVCAR-8): > 100 µM (inactive)
GI50 (A498): > 100 µM (inactive)
GI50 (786-0): > 100 µM (inactive)
GI50 (HCT-15): > 100 µM
GI50 (OVCAR-4): > 100 µM (inactive)
GI50 (DLD-1): > 100 µM (inactive)
GI50 (DMS-114): > 100 µM (inactive)
GI50 (SR): > 100 µM (inactive)
GI50 (RXF 393): > 100 µM (inactive)
GI50 (SNB-78): > 100 µM (inactive)
GI50 (SNB-75): > 100 µM (inactive)
GI50 (HOP-92): 78.9 µM (inactive)
GI50 (TK-10): > 100 µM (inactive)
GI50 (OVCAR-5): > 100 µM (inactive)
GI50 (M14): > 100 µM (inactive)
GI50 (HOP-62): > 100 µM (inactive)
GI50 (DMS-273): > 100 µM (inactive)
GI50 (HOP-18): > 100 µM (inactive)
GI50 (OVCAR-3): > 100 µM (inactive)
GI50 (NCI-H23): > 100 µM (inactive)
GI50 (SK-MEL-5): > 100 µM (inactive)
GI50 (EKVX): > 100 µM (inactive)
GI50 (SF-295): > 100 µM (inactive)
GI50 (SNB-19): > 100 µM (inactive)
GI50 (Malme-3M): > 100 µM (inactive)
GI50 (NCI-H460): > 100 µM (inactive)
